In article PMC12417329 (Food Science & Nutrition, 2025):
In brackets after ≈: the same amount, converted by molar mass. Entries after “also recorded” stand apart in the source; their conditions may differ. Where two headings read alike, the source gives them in different places.

Key:
HPU = conditions: ref Xiao et al. [2007]; cited from earlier work
H. pylori urease (HPU) [1] = biological target: T1, H. pylori urease (HPU) (Helicobacter pylori, UniProt P69996); assay: Urease inhibition test (Berthelot, ammonia at 595 nm); assay type: biochemical
T1 construct: endogenous in cells; host or cells: Helicobacter pylori ATCC 43504 (extract, method of Matsubara et al. 2003)
T1 sequence (P69996 whole entry): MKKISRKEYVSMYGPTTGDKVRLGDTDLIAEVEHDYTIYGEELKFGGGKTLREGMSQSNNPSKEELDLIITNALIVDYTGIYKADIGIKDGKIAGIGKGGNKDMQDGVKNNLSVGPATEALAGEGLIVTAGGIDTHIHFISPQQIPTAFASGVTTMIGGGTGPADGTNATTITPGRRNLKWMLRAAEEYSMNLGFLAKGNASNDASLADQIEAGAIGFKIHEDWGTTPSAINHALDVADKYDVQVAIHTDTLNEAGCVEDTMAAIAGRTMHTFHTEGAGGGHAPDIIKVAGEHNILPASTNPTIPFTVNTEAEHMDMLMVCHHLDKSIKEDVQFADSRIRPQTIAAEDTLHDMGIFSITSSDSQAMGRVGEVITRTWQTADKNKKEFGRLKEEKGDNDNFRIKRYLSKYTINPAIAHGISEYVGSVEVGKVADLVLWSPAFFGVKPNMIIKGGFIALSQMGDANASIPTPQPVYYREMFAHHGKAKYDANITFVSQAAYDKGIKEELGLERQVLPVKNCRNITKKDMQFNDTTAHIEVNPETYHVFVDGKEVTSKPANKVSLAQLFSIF
T1 sequence (P14916 whole entry, further chain): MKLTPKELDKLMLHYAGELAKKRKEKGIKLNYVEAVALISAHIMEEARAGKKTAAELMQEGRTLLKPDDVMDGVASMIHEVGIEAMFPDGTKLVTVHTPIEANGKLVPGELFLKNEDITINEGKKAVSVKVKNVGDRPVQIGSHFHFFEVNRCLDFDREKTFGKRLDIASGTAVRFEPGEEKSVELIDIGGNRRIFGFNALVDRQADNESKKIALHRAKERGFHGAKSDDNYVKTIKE
Procedure: (§1) The standard strain H. pylori strains (ATCC 43504) were cultured on Mueller‐Hinton agar supplemented with 5% sheep blood. Bacterial cultures were maintained for 72 h at 37°C in a microaerophilic environment (5% O2, 10% CO2, 85% N2). For urease extraction, bacterial cells were harvested by centrifugation (5000×g, 10 min, 4°C) and subsequently washed three times with phosphate‐buffered saline (pH 7.4). Following turbidity adjustment using McFarland standards, H. pylori urease was prepared via a method established by Matsubara et al. ([2003]).
Urease activity was measured using spectrophotometry. The reaction was initiated by blending a particular amount of enzyme‐containing solution and 150 mM urea in 20 mM HEPES buffer (pH 7.5) at 37°C. Following 20 min, the Berthelot reagent was applied, and the quantity of ammonia produced by the urease‐urea reaction was detected at 595 nm (Wu et al. [2013]). The control group represented the activity of the uninhibited enzyme, which is 100% active. […]
Then 150 mM urea was added, and the reaction was carried out in the dark for 20 min. Afterward, the Berthelot reagent was added, and the quantity of ammonia produced by the urease‐urea reaction was detected at 595 nm. The residual enzyme activity (RA%) was calculated using the formula: RA% = activity with inhibitor/activity without inhibitor × 100%. […]

jack bean urease (JBU) [2] = biological target: T2, jack bean urease (JBU) (Canavalia ensiformis, UniProt P07374); assay: biochemical
T2 construct: Jack bean urease (JBU) (Type III, 40.3 U/mg) were offered by Sigma; purchased Sigma Type III, 40.3 U/mg (catalogue number not given)
T2 sequence (P07374 whole entry, looked up): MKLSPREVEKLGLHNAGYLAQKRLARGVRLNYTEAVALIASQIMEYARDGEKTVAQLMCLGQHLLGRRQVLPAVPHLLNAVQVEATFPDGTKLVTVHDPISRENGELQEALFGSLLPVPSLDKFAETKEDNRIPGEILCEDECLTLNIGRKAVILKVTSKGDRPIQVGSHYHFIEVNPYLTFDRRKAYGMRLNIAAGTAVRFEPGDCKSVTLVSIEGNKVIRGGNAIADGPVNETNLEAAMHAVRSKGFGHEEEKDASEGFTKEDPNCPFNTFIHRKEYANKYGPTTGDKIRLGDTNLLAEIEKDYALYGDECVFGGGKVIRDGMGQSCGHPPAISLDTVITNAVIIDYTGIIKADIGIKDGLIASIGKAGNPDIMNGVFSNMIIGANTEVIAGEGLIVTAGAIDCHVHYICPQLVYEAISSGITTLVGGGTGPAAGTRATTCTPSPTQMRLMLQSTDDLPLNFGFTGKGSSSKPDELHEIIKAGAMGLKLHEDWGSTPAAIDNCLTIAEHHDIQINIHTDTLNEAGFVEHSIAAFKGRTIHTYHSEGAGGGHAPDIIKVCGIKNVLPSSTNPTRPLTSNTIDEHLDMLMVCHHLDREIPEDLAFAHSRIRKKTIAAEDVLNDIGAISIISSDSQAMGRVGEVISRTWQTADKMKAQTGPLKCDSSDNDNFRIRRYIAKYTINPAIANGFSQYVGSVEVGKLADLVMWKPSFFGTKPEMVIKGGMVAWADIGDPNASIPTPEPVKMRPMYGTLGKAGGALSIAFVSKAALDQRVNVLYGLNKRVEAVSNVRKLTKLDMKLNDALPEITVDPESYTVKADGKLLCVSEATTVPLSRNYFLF

JBU = conditions: cited from earlier work
jack bean urease (JBU) [3] = biological target: T2, jack bean urease (JBU); assay: Reactivation of PIC-deactivated urease by GSH; assay type: biochemical
Procedure: (§2) After 20 min, half of the reaction solution was removed and added to 1.25 mM GSH solution. Enzyme activity was determined before and after the addition of GSH. After co‐incubation for different periods, the residual enzyme activity in the mixtures was detected as described in Section 2.4.

H. pylori urease (HPU) [4] = biological target: T1, H. pylori urease (HPU); assay: Reactivation of PIC-deactivated urease by GSH; assay type: biochemical
Procedure: as §2

jack bean urease (JBU) [5] = biological target: T2, jack bean urease (JBU); assay: Urease inhibition type and kinetics (Lineweaver-Burk plots, progress curves); assay type: biochemical
Procedure: (§3) The Lineweaver‐Burk plots were applied to calculate the change in the Michaelis constant (K M) and maximum velocity (V max). […] Additionally, the inhibition constant was derived by secondary replotting of Lineweaver‐Burk plots. All tests were performed in triplicate.
(§4) Enzyme activity in both procedures was measured as outlined in Section 2.4. Subsequently, the curve fitting software was used to fit the data according to the following formula: Pt=VS×t+V0−VS(1−e^−kapp×t)/kapp^−1 where, P(t) is the amount of product accumulated after t minutes of reaction, V 0 is the velocity at the start of the reaction, V S is the velocity at which the reaction reaches equilibrium, and kapp is the apparent velocity constant (Breitenbach and Hausinger [1988]). The experiments were repeated three times.

H. pylori urease (HPU) [6] = biological target: T1, H. pylori urease (HPU); assay: as above; assay type: biochemical
Procedure: as §3, §4

[7] = system: Helicobacter pylori strains (ATCC 43504, HP1869, HP1870); assay: Minimal inhibitory concentration assay (agar dilution); assay type: cell-based; conditions: ATCC43504, 120 h, pH 7.2, 5 days
Procedure: as §1
After solidification and overnight storage at 4°C to confirm sterility, plates showing no contamination were inoculated with 100 μL of H. pylori suspension (adjusted to McFarland 1.0 standard) and incubated microaerophilically (85% N2, 10% CO2, 5% O2) at 37°C for 5 days.

[8] = 20 min preincubation at 37°C, 150 mM urea, pH 7.5, read-out: IC50
[9] = PIC-inactivated urease after adding 1.25 mM GSH
[10] = co-incubation with 1.5 mM PIC for 20 min
[11] = Lineweaver-Burk plot, progress curves

O=c1c(-c2ccc(O)cc2)coc2c(O)c(O)ccc12 [7,8,4′‐trihydroxyisoflavone]
IC50 (HPU): 140 µM

CC(=O)NO [AHA, Acetohydroxamic acid, reference compound]
IC50 (H. pylori urease (HPU) [1]; [8]): 80 µM | IC50 (jack bean urease (JBU) [2]; [8]): 20 µM

O=C(O)[C@H]1O[C@@H](Oc2cc3oc(-c4ccccc4)cc(=O)c3c(O)c2O)[C@H](O)[C@@H](O)[C@@H]1O [Baicalin]
IC50 (JBU; ref Tan et al. [2013], Yu et al. [2015]): 2740 ± 510 µM

Oc1cc(O)cc(/C=C/c2ccc(O)c(O)c2)c1 [PIC, Piceatannol]
reversibility of inactivation (jack bean urease (JBU) [3]; GSH reactivation): reversible | urease activity restored, of the initial activity (jack bean urease (JBU) [3]; [9]): about 60% | initial activity lost (jack bean urease (JBU) [3]; [10]): approximately 80% | reversibility of inactivation (H. pylori urease (HPU) [4]; GSH reactivation): reversible | urease activity restored, of the initial activity (H. pylori urease (HPU) [4]; [9]): about 60% | initial activity lost (H. pylori urease (HPU) [4]; [10]): approximately 80% | IC50 (H. pylori urease (HPU) [1]): 670 ± 20 µM | IC50 (jack bean urease (JBU) [2]): 470 ± 10 µM | Ki (jack bean urease (JBU) [5]): 340 ± 50 µM | inhibition type (jack bean urease (JBU) [5]; [11]): slow‐binding, non‐competitive inhibitor; also recorded: non‐competitive type; also recorded: slow‐binding inhibition | Ki (H. pylori urease (HPU) [6]): 630 ± 20 µM | inhibition type (H. pylori urease (HPU) [6]; [11]): slow‐binding, mixed inhibitor; also recorded: mixed‐type inhibitor; also recorded: slow‐binding inhibition | inhibitory constant Kis (H. pylori urease (HPU) [6]; secondary replot of Lineweaver-Burk intercepts): 0.94 ± 0.01 mM | MIC ([7]; pH 7.2, clinical strain HP1869, Mueller-Hinton agar): 100 µg/mL (≈ 409 µM) | MIC ([7]; pH 7.2, clinical strain HP1870, Mueller-Hinton agar): 100 µg/mL (≈ 409 µM) | MIC ([7]; pH 7.2, strain ATCC 43504 (standard strain), Mueller-Hinton agar): 150 µg/mL (≈ 614 µM)

O=C(O)[C@H]1O[C@@H](Oc2cc3oc(-c4ccc(O)cc4)cc(=O)c3c(O)c2O)[C@H](O)[C@@H](O)[C@@H]1O [scutellarin]
IC50 (JBU; ref Wu et al. [2013]): 1350 ± 150 µM
